Holding throughout (assay): relative viability (nuclei count vs DMSO), 5 days (fraction); higher = more cells survive
Compound in the assay “Obatoclax + Dasatinib”: COC1=CC(c2cc3ccccc3[nH]2)=N/C1=C\c1[nH]c(C)cc1C [Obatoclax] + Cc1nc(Nc2ncc(C(=O)Nc3c(C)cccc3Cl)s2)cc(N2CCN(CCO)CC2)n1 [Dasatinib] (partner 0.075 µM)
In short, it runs like this: (§1)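 Lung cancer cell lines were seeded in 1536-well plates and dosed by pin tool the next day, with either a single drug or a fixed anchor-drug dose combined with five library-drug doses (not always all listed) spaced in √10 steps. Five days later, one step fixed the cells and stained their nuclei (final 0.05% Triton X-100, 1% formaldehyde, 1 ug/ml Hoechst), and nuclei were counted on 4× images. Relative viability is the nuclei count in treated wells divided by the count in vehicle wells, and each value is the median of duplicate plates.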

Compound in the assay “Bortezomib + Tozasertib”: CC(C)C[C@H](NC(=O)[C@H](Cc1ccccc1)NC(=O)c1cnccn1)B(O)O [Bortezomib] + Cc1cc(Nc2cc(N3CCN(C)CC3)nc(Sc3ccc(NC(=O)C4CC4)cc3)n2)n[nH]1 [Tozasertib] (partner 0.1 µM)
In a few lines:
as §1

Compound in the assay “Obatoclax + Alpelisib”: COC1=CC(c2cc3ccccc3[nH]2)=N/C1=C\c1[nH]c(C)cc1C [Obatoclax] + Cc1nc(NC(=O)N2CCC[C@H]2C(N)=O)sc1-c1ccnc(C(C)(C)C(F)(F)F)c1 [Alpelisib] (partner 2 µM)
In a few lines:
as §1

Compound in the assay “Bortezomib + Olaparib”: CC(C)C[C@H](NC(=O)[C@H](Cc1ccccc1)NC(=O)c1cnccn1)B(O)O [Bortezomib] + O=C(c1cc(Cc2n[nH]c(=O)c3ccccc23)ccc1F)N1CCN(C(=O)C2CC2)CC1 [Olaparib] (partner 8 µM)
In a few lines:
as §1

Regarding HCC-78, the relative viability was determined as 0.48 with Obatoclax + Dasatinib (first compound 0.01 µM); 0.406 with Obatoclax + Dasatinib (first compound 0.03162 µM); 0.419 with Obatoclax + Dasatinib (first compound 0.1 µM); 0.324 with Obatoclax + Dasatinib (first compound 0.3162 µM); 0.418 with Obatoclax + Dasatinib (first compound 1 µM); 0.488 with Bortezomib + Tozasertib (first compound 0.0002 µM). In addition, the relative viability in the assay with Bortezomib + Tozasertib (first compound 0.000632 µM) stood at 0.331; in the assay with Bortezomib + Tozasertib (first compound 0.002 µM) it was 0.41; in the assay with Bortezomib + Tozasertib (first compound 0.006325 µM), 0.236; with Bortezomib + Tozasertib (first compound 0.02 µM), 0.209; with Obatoclax + Alpelisib (first compound 0.01 µM), 0.314; in the assay with Obatoclax + Alpelisib (first compound 0.03162 µM), 0.35. The relative viability is 0.26 with Obatoclax + Alpelisib (first compound 0.3162 µM); 0.321 with Obatoclax + Alpelisib (first compound 1 µM); 0.928 with Bortezomib + Olaparib (first compound 0.0002 µM); 0.662 with Bortezomib + Olaparib (first compound 0.000632 µM); 0.398 with Bortezomib + Olaparib (first compound 0.002 µM); 0.233 in the assay with Bortezomib + Olaparib (first compound 0.006325 µM). Also, in the assay with Bortezomib + Olaparib (first compound 0.02 µM), the relative viability worked out at 0.258.

For the cell line HCC-366, the relative viability in the assay with Obatoclax + Dasatinib (first compound 0.01 µM) came to 0.667; with Obatoclax + Dasatinib (first compound 0.03162 µM), 0.574; in the assay with Obatoclax + Dasatinib (first compound 0.1 µM), 0.39; with Obatoclax + Dasatinib (first compound 0.3162 µM) it was 0.574; in the assay with Obatoclax + Dasatinib (first compound 1 µM), 0.533; in the assay with Bortezomib + Tozasertib (first compound 0.0002 µM), 0.13. Moreover, the relative viability with Bortezomib + Tozasertib (first compound 0.000632 µM) was found to be 0.115; in the assay with Bortezomib + Tozasertib (first compound 0.002 µM), 0.094; with Bortezomib + Tozasertib (first compound 0.006325 µM), 0.0548; with Bortezomib + Tozasertib (first compound 0.02 µM) it was 0.0273; with Obatoclax + Alpelisib (first compound 0.01 µM) it was 0.382; with Obatoclax + Alpelisib (first compound 0.03162 µM), 0.363. Moreover, the relative viability in the assay with Obatoclax + Alpelisib (first compound 0.1 µM) came to 0.366; in the assay with Obatoclax + Alpelisib (first compound 0.3162 µM), 0.396; in the assay with Obatoclax + Alpelisib (first compound 1 µM), 0.233; with Bortezomib + Olaparib (first compound 0.0002 µM), 0.358; with Bortezomib + Olaparib (first compound 0.000632 µM) it was 0.376; with Bortezomib + Olaparib (first compound 0.002 µM) it was 0.455. The values for the relative viability with Bortezomib + Olaparib (first compound 0.006325 µM) and in the assay with Bortezomib + Olaparib (first compound 0.02 µM) were 0.0607 and 0.0196, respectively.

Regarding HCC-827, the relative viability with Obatoclax + Dasatinib (first compound 0.01 µM) was 0.451; with Obatoclax + Dasatinib (first compound 0.03162 µM) it was 0.292; with Obatoclax + Dasatinib (first compound 0.1 µM), 0.417; in the assay with Obatoclax + Dasatinib (first compound 0.3162 µM) it was 0.407; with Obatoclax + Dasatinib (first compound 1 µM), 0.388; with Bortezomib + Tozasertib (first compound 0.0002 µM), 0.418. The relative viability with Bortezomib + Tozasertib (first compound 0.000632 µM) was 0.447; with Bortezomib + Tozasertib (first compound 0.002 µM) it was 0.419; in the assay with Bortezomib + Tozasertib (first compound 0.006325 µM), 0.12; in the assay with Bortezomib + Tozasertib (first compound 0.02 µM) it was 0.0981; with Obatoclax + Alpelisib (first compound 0.01 µM), 0.949; with Obatoclax + Alpelisib (first compound 0.03162 µM) it was 0.931. Moreover, the relative viability came out at 0.957 with Obatoclax + Alpelisib (first compound 0.1 µM); 0.984 with Obatoclax + Alpelisib (first compound 0.3162 µM); 0.964 in the assay with Obatoclax + Alpelisib (first compound 1 µM); 0.725 with Bortezomib + Olaparib (first compound 0.0002 µM); 0.611 with Bortezomib + Olaparib (first compound 0.000632 µM); 0.357 with Bortezomib + Olaparib (first compound 0.002 µM). The relative viability in the assay with Bortezomib + Olaparib (first compound 0.006325 µM) is 0.14; in the assay with Bortezomib + Olaparib (first compound 0.02 µM) it was 0.138.

In the case of HOP-62, the relative viability in the assay with Obatoclax + Dasatinib (first compound 0.01 µM) was determined as 0.718; in the assay with Obatoclax + Dasatinib (first compound 0.03162 µM), 0.64; with Obatoclax + Dasatinib (first compound 0.1 µM), 0.439; in the assay with Obatoclax + Dasatinib (first compound 0.3162 µM) it was 0.787; with Obatoclax + Dasatinib (first compound 1 µM), 0.534; in the assay with Bortezomib + Tozasertib (first compound 0.0002 µM), 0.354. In addition, the relative viability with Bortezomib + Tozasertib (first compound 0.000632 µM) was determined as 0.391; in the assay with Bortezomib + Tozasertib (first compound 0.002 µM) it was 0.292; with Bortezomib + Tozasertib (first compound 0.006325 µM) it was 0.0719; with Bortezomib + Tozasertib (first compound 0.02 µM) it was 0.0538; with Obatoclax + Alpelisib (first compound 0.01 µM), 0.903; with Obatoclax + Alpelisib (first compound 0.03162 µM), 0.771. Besides, the relative viability in the assay with Obatoclax + Alpelisib (first compound 0.1 µM) turned out to be 0.951; with Obatoclax + Alpelisib (first compound 0.3162 µM), 1.02; with Obatoclax + Alpelisib (first compound 1 µM), 1.21; with Bortezomib + Olaparib (first compound 0.0002 µM), 0.392; in the assay with Bortezomib + Olaparib (first compound 0.000632 µM), 0.448; with Bortezomib + Olaparib (first compound 0.002 µM), 0.165. Further, the values for the relative viability in the assay with Bortezomib + Olaparib (first compound 0.006325 µM) and with Bortezomib + Olaparib (first compound 0.02 µM) were 0.0947 and 0.0397, respectively.

IA-LM: the relative viability came out at 0.843 with Obatoclax + Alpelisib (first compound 0.01 µM); 0.743 with Obatoclax + Alpelisib (first compound 0.03162 µM); 0.612 in the assay with Obatoclax + Alpelisib (first compound 0.1 µM); 0.327 with Obatoclax + Alpelisib (first compound 0.3162 µM); 0.0686 with Obatoclax + Alpelisib (first compound 1 µM); 0.765 in the assay with Bortezomib + Olaparib (first compound 0.0002 µM). The relative viability was 0.824 with Bortezomib + Olaparib (first compound 0.000632 µM), 0.791 in the assay with Bortezomib + Olaparib (first compound 0.002 µM), 0.0665 with Bortezomib + Olaparib (first compound 0.006325 µM) and 0.0149 with Bortezomib + Olaparib (first compound 0.02 µM).

LC-2-ad: the relative viability with Obatoclax + Dasatinib (first compound 0.01 µM) was found to be 0.696; in the assay with Obatoclax + Dasatinib (first compound 0.03162 µM) it was 0.504; in the assay with Obatoclax + Dasatinib (first compound 0.1 µM), 0.507; with Obatoclax + Dasatinib (first compound 0.3162 µM), 0.394; in the assay with Obatoclax + Dasatinib (first compound 1 µM) it was 0.463; in the assay with Bortezomib + Tozasertib (first compound 0.0002 µM), 0.447. The relative viability with Bortezomib + Tozasertib (first compound 0.000632 µM) was 0.477; in the assay with Bortezomib + Tozasertib (first compound 0.002 µM) it was 0.328; with Bortezomib + Tozasertib (first compound 0.006325 µM), 0.217; with Bortezomib + Tozasertib (first compound 0.02 µM), 0.199; with Obatoclax + Alpelisib (first compound 0.01 µM), 0.892; with Obatoclax + Alpelisib (first compound 0.03162 µM) it was 0.931. Further, the relative viability with Obatoclax + Alpelisib (first compound 0.1 µM) is 0.884; in the assay with Obatoclax + Alpelisib (first compound 0.3162 µM), 0.477; in the assay with Obatoclax + Alpelisib (first compound 1 µM) it was 0.655; with Bortezomib + Olaparib (first compound 0.0002 µM) it was 0.68; in the assay with Bortezomib + Olaparib (first compound 0.000632 µM) it was 0.723; with Bortezomib + Olaparib (first compound 0.002 µM), 0.782. For the same cell line, the relative viability with Bortezomib + Olaparib (first compound 0.006325 µM) is 0.194; in the assay with Bortezomib + Olaparib (first compound 0.02 µM) it was 0.184.

Turning to LCLC-97TM1, the relative viability in the assay with Obatoclax + Dasatinib (first compound 0.01 µM) was 0.928; in the assay with Obatoclax + Dasatinib (first compound 0.03162 µM), 0.746; in the assay with Obatoclax + Dasatinib (first compound 0.1 µM), 0.916; with Obatoclax + Dasatinib (first compound 0.3162 µM) it was 0.842; with Obatoclax + Dasatinib (first compound 1 µM) it was 0.682; in the assay with Bortezomib + Tozasertib (first compound 0.0002 µM), 0.289. Also, the relative viability in the assay with Bortezomib + Tozasertib (first compound 0.000632 µM) turned out to be 0.204; in the assay with Bortezomib + Tozasertib (first compound 0.002 µM), 0.25; with Bortezomib + Tozasertib (first compound 0.006325 µM), 0.131; with Bortezomib + Tozasertib (first compound 0.02 µM), 0.14; with Obatoclax + Alpelisib (first compound 0.01 µM), 0.27; with Obatoclax + Alpelisib (first compound 0.03162 µM), 0.232. The relative viability stood at 0.283 with Obatoclax + Alpelisib (first compound 0.1 µM); 0.227 with Obatoclax + Alpelisib (first compound 0.3162 µM); 0.293 with Obatoclax + Alpelisib (first compound 1 µM); 0.343 with Bortezomib + Olaparib (first compound 0.0002 µM); 0.431 in the assay with Bortezomib + Olaparib (first compound 0.000632 µM); 0.264 in the assay with Bortezomib + Olaparib (first compound 0.002 µM). For the same cell line, the relative viability came to 0.0586 with Bortezomib + Olaparib (first compound 0.006325 µM) and 0.0773 with Bortezomib + Olaparib (first compound 0.02 µM).

Turning to LCLC-103H, the relative viability came out at 0.458 with Obatoclax + Dasatinib (first compound 0.01 µM); 0.464 in the assay with Obatoclax + Dasatinib (first compound 0.03162 µM); 0.411 with Obatoclax + Dasatinib (first compound 0.1 µM); 0.517 with Obatoclax + Dasatinib (first compound 0.3162 µM); 0.53 in the assay with Obatoclax + Dasatinib (first compound 1 µM); 0.485 in the assay with Bortezomib + Tozasertib (first compound 0.000632 µM). In addition, the relative viability in the assay with Bortezomib + Tozasertib (first compound 0.002 µM) came out at 0.251; with Bortezomib + Tozasertib (first compound 0.006325 µM) it was 0.147; with Bortezomib + Tozasertib (first compound 0.02 µM), 0.128; in the assay with Obatoclax + Alpelisib (first compound 0.01 µM) it was 0.938; in the assay with Obatoclax + Alpelisib (first compound 0.03162 µM), 0.907; in the assay with Obatoclax + Alpelisib (first compound 0.1 µM), 0.97. In addition, the relative viability was 0.961 with Obatoclax + Alpelisib (first compound 0.3162 µM); 1.02 with Obatoclax + Alpelisib (first compound 1 µM); 0.747 in the assay with Bortezomib + Olaparib (first compound 0.0002 µM); 0.778 in the assay with Bortezomib + Olaparib (first compound 0.000632 µM); 0.671 with Bortezomib + Olaparib (first compound 0.002 µM); 0.355 in the assay with Bortezomib + Olaparib (first compound 0.006325 µM). Besides, the relative viability with Bortezomib + Olaparib (first compound 0.02 µM) was found to be 0.202.

The values above are taken from the supplement of paper PMC10307832.
